ChEMBL document CHEMBL1201862, “PubChem BioAssay data set” (2004)
Activity calls are given as the source filed them.

Key:
Aminopeptidase N = biological target: T1, Aminopeptidase N (Plasmodium falciparum FcB1/Columbia, UniProt O96935); assay: malaria alanyl aminopeptidase activity blockers – biochemical, fluorogenic H-Leu-NHMec substrate, 1536-well (AID 1445); parameters: species or system Plasmodium falciparum 3D7, 3D7
T1 sequence (O96935 whole entry): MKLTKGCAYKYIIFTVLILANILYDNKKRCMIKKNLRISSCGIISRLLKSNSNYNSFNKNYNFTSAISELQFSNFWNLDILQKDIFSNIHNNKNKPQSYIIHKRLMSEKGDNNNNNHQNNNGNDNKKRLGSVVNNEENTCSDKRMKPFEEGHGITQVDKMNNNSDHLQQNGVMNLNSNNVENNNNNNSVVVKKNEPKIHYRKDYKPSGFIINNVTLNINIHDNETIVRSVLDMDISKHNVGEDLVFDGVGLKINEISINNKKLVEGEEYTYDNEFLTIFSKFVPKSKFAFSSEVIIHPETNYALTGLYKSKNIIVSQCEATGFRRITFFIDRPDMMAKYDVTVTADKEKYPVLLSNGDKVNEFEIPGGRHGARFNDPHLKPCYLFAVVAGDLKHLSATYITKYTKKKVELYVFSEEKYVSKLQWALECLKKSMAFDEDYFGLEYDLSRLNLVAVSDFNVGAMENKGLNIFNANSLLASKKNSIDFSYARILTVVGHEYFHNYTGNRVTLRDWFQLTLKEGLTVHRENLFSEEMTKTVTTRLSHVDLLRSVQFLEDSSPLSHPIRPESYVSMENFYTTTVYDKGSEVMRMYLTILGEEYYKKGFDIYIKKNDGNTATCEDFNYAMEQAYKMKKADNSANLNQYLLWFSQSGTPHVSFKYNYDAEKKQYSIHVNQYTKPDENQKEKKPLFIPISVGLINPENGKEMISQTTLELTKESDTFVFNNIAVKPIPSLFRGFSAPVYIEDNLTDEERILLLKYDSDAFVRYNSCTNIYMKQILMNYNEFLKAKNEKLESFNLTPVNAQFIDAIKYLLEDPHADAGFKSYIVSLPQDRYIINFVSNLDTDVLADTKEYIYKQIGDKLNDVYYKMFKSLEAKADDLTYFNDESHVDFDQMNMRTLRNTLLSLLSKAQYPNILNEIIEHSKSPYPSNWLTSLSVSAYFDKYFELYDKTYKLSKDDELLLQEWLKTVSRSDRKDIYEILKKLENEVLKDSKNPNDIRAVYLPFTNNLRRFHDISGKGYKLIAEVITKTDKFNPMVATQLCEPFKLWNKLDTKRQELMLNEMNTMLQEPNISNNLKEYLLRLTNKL

[1] = HPDE-C7 pancreatic duct cell viability loss – fluorescence, HTS (AID 430); type: functional, cell-based; details: Homo sapiens
[2] = viability loss of HPDE-C7K cells – cell-based, fluorescence, HTS, primary screen (AID 431); type: functional; details: Homo sapiens
[3] = biological target: Glyceraldehyde-3-phosphate dehydrogenase (Homo sapiens, UniProt P04406)
Chain of Glyceraldehyde-3-phosphate dehydrogenase (P04406 whole entry): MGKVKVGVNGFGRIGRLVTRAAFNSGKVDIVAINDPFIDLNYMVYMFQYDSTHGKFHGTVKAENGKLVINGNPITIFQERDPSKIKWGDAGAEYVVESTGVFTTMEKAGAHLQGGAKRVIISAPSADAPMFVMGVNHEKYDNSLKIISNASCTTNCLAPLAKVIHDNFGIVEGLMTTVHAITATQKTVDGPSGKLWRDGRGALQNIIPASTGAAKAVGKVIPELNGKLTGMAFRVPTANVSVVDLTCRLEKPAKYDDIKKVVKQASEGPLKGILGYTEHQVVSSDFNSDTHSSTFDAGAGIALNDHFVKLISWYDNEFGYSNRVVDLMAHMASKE

Bcl-2-related protein A1 [4] = biological target: T2, Bcl-2-related protein A1 (Mus musculus, UniProt Q07440); assay: small-molecule antagonists of Bfl-1/BH3 interaction – biochemical, TR-FRET, mouse Bfl-1, confirmation (AID 621);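 note: TR-FRET binding of GST-Bfl-1 to FITC-labelled Bid peptide via terbium antibody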
T2 sequence (Q07440 whole entry): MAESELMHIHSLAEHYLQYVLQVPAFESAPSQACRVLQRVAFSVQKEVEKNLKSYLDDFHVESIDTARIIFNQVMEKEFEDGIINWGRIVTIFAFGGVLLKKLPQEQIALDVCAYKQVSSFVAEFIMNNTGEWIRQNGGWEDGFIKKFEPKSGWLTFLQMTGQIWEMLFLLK

Bcl-2-related protein A1 [5] = biological target: T2, Bcl-2-related protein A1; assay: Bfl-1 binding inhibitors, SAR follow-up, biochemical, fluorescence polarization (AID 1070)
[6] = Luminescent dose response cell-based high throughput screening assay for inhibitors of the Janus kinase 2 mutant JAK2V617F. [Related pubchem assays: 1446 (Primary screen.), 1521 (Confirmation assay.), 1486 (Counter screen.)]; type: functional
[7] = NIH-3T3 fibroblast cytotoxicity, dose response, cytotoxicity control, cell-based, fluorescence, Alamar Blue, secondary assay (AID 2327); type: functional;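 note: NIH-3T3 mouse fibroblasts cultured with fluconazole at 8 µg/mL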
[8] = fluconazole-exposed Candida albicans growth modulators – fluorescence, retest, confirmation (AID 2467); type: functional, cell-based
Vero = assay: cells; type: functional; details: Chlorocebus sabaeus
[9] = luciferase reporter signal suppression in cells – H4 neuroglioma cells, luminescence, dose response (AID 1990); type: functional, cell-based
[10] = Luminescence Cell-Based Dose Response HTS to Identify Inhibitors of 5'UTR Stem-Loop Driven Prion Protein mRNA Translation in H4 Neuroglioblastoma Cells. [Related pubchem assays: 1827 (Project Summary), 1813 (Primary HTS)]; type: functional
[11] = alpha-synuclein stem-loop luciferase translation blockers – H4 neuroglioma cells, luminescence, confirmation (AID 1988); type: functional, cell-based
[12] = Trypanosoma cruzi growth suppression in host cells – NIH3T3 host cells, beta-gal luminescence, confirmation (AID 2044); type: functional, cell-based;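 note: intracellular parasites grown in NIH/3T3 mouse fibroblasts as host cells; luminescent beta-galactosidase reporter signal from transgenic T. cruzi replicating inside host cells; inhibitors lower the luminescence signal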
[13] = NIH3T3 cell viability loss – ATP luminescence, mouse fibroblasts, counter-screen, dose response (AID 2010); type: functional, cell-based;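 note: cells exposed to compound for about 90 hours before reading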
[14] = microbe, parasite or virus in culture; type: functional; details: Mycobacterium tuberculosis
INS1 = assay: INS-1E survival protection against cytokine death – cell-based, luminescence, retest, dose response (AID 449756); type: functional; details: Rattus norvegicus;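 note: cell death triggered by IL-1 beta plus TNF-alpha plus IFN-gamma mixture; protective hits raise ATP signal compared with cytokine alone wells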
[15] = biological target: Luciferin 4-monooxygenase (Photinus pyralis, UniProt P08659); assay: inhibition of purified Photinus pyralis luciferase – biochemical, luminescence, dose response (AID 1891)
Chain of Luciferin 4-monooxygenase (P08659 whole entry): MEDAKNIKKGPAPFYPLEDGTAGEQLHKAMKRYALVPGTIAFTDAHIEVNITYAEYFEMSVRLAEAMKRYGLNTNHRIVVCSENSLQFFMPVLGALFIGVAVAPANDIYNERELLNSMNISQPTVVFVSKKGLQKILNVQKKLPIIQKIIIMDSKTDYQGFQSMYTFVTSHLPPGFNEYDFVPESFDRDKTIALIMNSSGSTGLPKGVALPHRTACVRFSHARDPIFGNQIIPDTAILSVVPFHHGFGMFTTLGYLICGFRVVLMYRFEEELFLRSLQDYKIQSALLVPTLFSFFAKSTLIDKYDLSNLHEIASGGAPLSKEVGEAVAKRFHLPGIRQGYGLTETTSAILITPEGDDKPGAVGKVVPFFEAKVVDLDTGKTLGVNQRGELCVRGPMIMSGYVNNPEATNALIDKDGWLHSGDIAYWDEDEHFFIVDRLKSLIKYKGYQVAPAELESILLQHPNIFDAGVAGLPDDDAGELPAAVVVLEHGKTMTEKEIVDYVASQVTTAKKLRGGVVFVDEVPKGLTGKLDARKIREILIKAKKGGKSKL

[16] = Luminescence Cell-Based Dose Confirmation HTS to Identify Inhibitors of Platelet Dense Granule Release. [Related pubchem assays: 1663 (Primary HTS), 1678 (Summary of Project)]; type: functional
Kallikrein-7 = Kallikrein-7 (Homo sapiens, UniProt P49862); assay: Fluorescence Intensity-based biochemical primary high throughput dose response assay to identify activators of kallikrein-7 (K7) zymogen.
Chain of Kallikrein-7 (P49862 whole entry): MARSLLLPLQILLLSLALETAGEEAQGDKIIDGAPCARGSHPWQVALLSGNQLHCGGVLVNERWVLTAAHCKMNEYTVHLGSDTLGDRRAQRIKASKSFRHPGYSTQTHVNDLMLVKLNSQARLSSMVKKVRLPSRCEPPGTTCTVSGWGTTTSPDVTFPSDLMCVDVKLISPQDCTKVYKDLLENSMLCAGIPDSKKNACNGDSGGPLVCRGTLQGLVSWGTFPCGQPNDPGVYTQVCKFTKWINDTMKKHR

[17] = biological target: NAD-dependent protein deacylase sirtuin-5, mitochondrial (Homo sapiens, UniProt Q9NXA8); assay: sirtuin-5 deacylation blockers, concentration series – biochemical, fluorescence imaging, cherry-pick, set 5, dose response (AID 720591);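 note: desuccinylation of succinyl peptide AMC substrate read as fluorescence after trypsin release; potency of inhibitors that lower fluorescence and may act on trypsin instead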
Chain of NAD-dependent protein deacylase sirtuin-5, mitochondrial (Q9NXA8 whole entry): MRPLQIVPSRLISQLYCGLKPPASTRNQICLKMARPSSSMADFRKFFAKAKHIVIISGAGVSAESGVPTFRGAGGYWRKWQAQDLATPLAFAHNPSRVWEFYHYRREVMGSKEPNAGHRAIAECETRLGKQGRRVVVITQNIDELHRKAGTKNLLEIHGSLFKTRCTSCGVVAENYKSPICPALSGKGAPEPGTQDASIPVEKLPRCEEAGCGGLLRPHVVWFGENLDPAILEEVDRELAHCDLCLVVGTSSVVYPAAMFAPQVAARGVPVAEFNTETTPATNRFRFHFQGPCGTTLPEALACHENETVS

[18] = biological target: Protein-tyrosine kinase 2-beta (Homo sapiens, UniProt Q14289);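 note: potency of inhibitors of PYK2 kinase phosphorylation of poly-GT substrate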
Chain of Protein-tyrosine kinase 2-beta (Q14289 whole entry): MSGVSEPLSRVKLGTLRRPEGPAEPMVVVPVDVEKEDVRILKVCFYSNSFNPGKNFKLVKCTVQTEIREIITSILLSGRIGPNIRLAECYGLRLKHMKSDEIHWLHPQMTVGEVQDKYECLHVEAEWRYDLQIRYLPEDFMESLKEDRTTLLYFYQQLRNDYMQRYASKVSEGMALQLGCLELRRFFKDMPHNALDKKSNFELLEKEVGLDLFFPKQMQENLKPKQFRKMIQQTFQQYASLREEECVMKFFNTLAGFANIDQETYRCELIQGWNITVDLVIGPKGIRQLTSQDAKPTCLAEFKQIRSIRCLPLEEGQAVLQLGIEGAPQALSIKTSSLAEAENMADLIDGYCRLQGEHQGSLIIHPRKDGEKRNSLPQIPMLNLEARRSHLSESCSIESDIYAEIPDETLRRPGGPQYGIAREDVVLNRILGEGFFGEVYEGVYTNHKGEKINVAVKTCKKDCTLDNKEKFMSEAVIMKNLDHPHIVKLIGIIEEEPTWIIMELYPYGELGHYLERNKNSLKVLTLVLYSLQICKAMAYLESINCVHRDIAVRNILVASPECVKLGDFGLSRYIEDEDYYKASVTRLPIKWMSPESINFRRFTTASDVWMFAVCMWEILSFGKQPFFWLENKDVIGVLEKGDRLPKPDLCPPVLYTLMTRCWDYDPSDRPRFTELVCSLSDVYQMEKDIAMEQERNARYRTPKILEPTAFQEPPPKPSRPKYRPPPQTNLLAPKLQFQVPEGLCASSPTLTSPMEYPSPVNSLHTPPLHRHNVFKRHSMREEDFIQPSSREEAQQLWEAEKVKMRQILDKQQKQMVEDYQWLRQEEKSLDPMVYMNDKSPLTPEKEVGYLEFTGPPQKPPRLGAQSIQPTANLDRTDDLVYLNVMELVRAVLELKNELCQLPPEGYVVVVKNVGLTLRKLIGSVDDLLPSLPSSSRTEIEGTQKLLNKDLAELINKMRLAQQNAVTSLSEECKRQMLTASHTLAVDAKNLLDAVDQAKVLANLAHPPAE

## COC(=O)c1ccc(O)c(Sc2cc(C(=O)OC)ccc2O)c1
Aminopeptidase N
  IC50: 33.1 µM (active)
[1]
  EC50: 13.6 µM (active)
[2]
  EC50: > 20 µM (not active)

## CCOC(=O)CS(=O)(=O)c1nc2c(c(C(F)(F)F)n1)CCc1ccccc1-2
[3]
  IC50: > 100 µM (not active)
Bcl-2-related protein A1 [4]
  IC50: > 100 µM (not active)
Bcl-2-related protein A1 [5]
  IC50: > 100 µM (not active)

## Cc1cccc(NC(=O)c2ccc([N+](=O)[O-])o2)c1
[6]
  IC50: 1.18 µM (active)
[7]
  EC50: 18 µM (active)
[8]
  EC50: 1.42 µM (active)
Vero
  CC50: 10 µM (active)

## CC(C)c1ccc(-n2c(-c3ccccc3)c[n+]3c2CCc2ccccc2-3)cc1
[9]
  EC50: 9.52 µM (active)
[10]
  EC50: > 120 µM (not active)
[11]
  EC50: 11.7 µM (active)
[12]
  EC50: < 0.1 µM (active)
[13]
  EC50: > 60 µM (not active)
cells
  EC50: 0.041 µM (active)

## Fc1ccc(C[n+]2c(-c3ccccc3)cc(-c3ccccc3)cc2-c2ccccc2)cc1.[O-][Cl+3]([O-])([O-])[O-]
[9]
  EC50: 11.2 µM (active)
[10]
  EC50: 35.3 µM (active)
[11]
  EC50: > 120 µM (not active)
[12]
  EC50: < 0.1 µM (active)
[14]
  CC50: > 40 µM (active)
[13]
  EC50: > 60 µM (not active)
INS1
  AC50: 2.98 µM (active)
cells
  EC50: 0.053 µM (active)

## CN1CCSc2ccc(C(=O)NCc3ccccc3F)cc21
[15]
  EC50: > 112 µM (not active)
[16]
  EC50: > 112 µM (not active)
Kallikrein-7
  EC50: > 23.2 µM (inactive)

## Cc1ccc(SCc2cn3ccccc3n2)cc1
[17]
  AC50: > 30 µM (inactive)

## CC(C)(C)C(=O)Nc1nc2c(s1)COc1ccccc1-2
[18]
  IC50: > 69.5 µM (not active)
